Results published in ChEMBL document CHEMBL1138016, “Azaadamantane benzamide 5-HT4 agonists: gastrointestinal prokinetic SC-54750” (Bioorg Med Chem Lett, 2004).

How the values were obtained:
[1] = biological target: T1, Adrenergic receptor alpha-2 (Homo sapiens, UniProt P08913+P18825+P18089); experiment: Concentration required for inhibition of alpha-2 adrenergic receptor; type: protein assay
T1 sequence (P08913 whole entry): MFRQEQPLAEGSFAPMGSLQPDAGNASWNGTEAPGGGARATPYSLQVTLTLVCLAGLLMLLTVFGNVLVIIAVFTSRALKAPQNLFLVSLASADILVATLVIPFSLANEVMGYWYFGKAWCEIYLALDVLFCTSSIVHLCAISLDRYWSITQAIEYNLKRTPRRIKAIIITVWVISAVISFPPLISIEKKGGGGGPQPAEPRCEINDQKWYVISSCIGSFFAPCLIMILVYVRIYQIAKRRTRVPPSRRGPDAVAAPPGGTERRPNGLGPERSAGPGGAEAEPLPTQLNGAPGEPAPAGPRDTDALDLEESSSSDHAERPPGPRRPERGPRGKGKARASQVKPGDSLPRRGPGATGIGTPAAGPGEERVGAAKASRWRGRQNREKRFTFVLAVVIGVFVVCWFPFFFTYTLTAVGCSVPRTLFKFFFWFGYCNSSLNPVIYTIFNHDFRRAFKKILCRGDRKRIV
T1 sequence (P18825 whole entry): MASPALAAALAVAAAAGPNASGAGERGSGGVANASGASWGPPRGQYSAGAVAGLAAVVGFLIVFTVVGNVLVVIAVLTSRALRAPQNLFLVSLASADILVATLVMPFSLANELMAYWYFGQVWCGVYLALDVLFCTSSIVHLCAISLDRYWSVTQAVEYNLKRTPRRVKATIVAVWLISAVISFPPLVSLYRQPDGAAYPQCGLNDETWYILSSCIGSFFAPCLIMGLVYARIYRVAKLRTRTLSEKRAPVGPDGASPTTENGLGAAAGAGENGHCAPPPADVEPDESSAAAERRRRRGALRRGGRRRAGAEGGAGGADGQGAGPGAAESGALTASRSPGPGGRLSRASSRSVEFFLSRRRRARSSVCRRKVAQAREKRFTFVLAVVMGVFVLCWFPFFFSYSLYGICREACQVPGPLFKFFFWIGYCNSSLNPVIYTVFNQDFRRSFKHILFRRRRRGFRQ
T1 sequence (P18089 whole entry): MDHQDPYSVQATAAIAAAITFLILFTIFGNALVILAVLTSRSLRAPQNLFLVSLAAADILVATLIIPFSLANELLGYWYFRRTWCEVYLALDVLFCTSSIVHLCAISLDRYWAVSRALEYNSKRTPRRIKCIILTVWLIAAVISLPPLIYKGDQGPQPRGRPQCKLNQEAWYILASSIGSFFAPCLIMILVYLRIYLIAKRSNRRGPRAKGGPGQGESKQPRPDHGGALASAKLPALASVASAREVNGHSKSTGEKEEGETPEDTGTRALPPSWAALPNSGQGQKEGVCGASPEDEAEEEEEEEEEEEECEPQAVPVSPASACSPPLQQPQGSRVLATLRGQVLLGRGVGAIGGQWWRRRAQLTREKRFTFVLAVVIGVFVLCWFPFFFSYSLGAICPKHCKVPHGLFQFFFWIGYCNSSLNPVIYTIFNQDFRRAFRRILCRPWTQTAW

Adrenergic receptor beta = Adrenergic receptor beta (Homo sapiens, UniProt P08588+P07550+P13945); experiment: Concentration required for inhibition of beta adrenergic receptor; type: protein assay
[2] = biological target: T2, Adrenergic receptor alpha-1 (Homo sapiens, UniProt P35348+P25100+P35368); experiment: Concentration required for inhibition of alpha-1 adrenergic receptor using [3H]prazosin as the radioligand; type: protein assay
T2 sequence (P35348 whole entry): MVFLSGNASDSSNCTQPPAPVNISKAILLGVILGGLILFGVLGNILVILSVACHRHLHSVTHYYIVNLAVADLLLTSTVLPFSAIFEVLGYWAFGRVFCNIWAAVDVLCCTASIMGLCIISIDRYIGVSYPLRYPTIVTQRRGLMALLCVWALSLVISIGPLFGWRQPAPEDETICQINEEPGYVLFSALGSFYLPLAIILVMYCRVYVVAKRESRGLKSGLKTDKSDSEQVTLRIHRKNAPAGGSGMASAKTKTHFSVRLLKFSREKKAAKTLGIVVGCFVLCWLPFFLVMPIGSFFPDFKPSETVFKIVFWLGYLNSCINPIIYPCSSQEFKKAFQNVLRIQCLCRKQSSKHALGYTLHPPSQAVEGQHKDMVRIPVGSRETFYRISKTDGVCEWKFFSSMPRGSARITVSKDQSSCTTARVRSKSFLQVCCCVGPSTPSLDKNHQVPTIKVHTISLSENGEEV
T2 sequence (P25100 whole entry): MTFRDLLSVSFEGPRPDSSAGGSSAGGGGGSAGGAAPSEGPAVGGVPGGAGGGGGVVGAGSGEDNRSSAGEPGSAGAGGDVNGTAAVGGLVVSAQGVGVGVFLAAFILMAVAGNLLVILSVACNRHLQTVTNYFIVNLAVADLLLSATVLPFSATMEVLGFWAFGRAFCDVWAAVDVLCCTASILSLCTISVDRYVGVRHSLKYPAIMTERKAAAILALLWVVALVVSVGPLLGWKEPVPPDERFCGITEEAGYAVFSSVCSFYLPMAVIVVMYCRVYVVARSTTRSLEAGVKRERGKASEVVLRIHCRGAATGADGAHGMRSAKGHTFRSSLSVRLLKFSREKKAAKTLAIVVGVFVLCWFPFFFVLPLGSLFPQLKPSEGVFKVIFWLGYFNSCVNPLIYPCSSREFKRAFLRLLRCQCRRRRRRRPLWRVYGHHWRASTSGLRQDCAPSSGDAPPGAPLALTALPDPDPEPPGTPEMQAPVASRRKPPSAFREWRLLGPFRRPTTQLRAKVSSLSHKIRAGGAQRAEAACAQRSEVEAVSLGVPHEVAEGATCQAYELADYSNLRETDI
T2 sequence (P35368 whole entry): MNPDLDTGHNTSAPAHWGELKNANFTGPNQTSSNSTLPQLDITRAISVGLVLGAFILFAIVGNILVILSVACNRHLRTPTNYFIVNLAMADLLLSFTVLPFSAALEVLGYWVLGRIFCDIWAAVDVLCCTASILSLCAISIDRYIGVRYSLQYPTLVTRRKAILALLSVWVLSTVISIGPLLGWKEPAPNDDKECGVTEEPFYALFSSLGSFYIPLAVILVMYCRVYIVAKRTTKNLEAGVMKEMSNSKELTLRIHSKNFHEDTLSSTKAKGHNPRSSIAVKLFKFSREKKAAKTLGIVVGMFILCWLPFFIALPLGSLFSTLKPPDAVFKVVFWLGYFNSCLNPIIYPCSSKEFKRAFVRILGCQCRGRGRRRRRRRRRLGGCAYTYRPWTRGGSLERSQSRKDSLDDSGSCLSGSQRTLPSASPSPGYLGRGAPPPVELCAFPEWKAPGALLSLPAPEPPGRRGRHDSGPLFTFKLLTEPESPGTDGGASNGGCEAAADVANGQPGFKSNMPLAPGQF

[3] = Concentration required for inhibition of 5-hydroxytryptamine 3 receptor using [3H]GR-65630 as the radioligand

SMILES | IC50 [1] [µM] | IC50 (Adrenergic receptor beta) [µM] | IC50 [2] [µM] | IC50 [3] [µM]
COc1cc(N)c(Cl)cc1C(=O)NC1C2CC3CC1CN(C3)C2 (stereo in doubt; 9a) | 6.4 | > 10 | > 10 | 0.672
COc1cc(N)c(Cl)cc1C(=O)NC1C2CC3CC1CN(C3)C2 (stereo in doubt; 9b) | > 10 | > 10 | > 10 | 0.018
COc1cc(N)c(Cl)cc1C(=O)NCC1C2CC3CC1CN(C3)C2 (stereo in doubt; 9c) | > 10 | > 10 | > 10 | 0.0035
